In brackets after ≈: the same amount, converted by molar mass. Activity calls are given as the source filed them. No cut-off for these calls is given here.
Legend:
[1] = molecular target: Serine/threonine-protein kinase mTOR (Rattus norvegicus) (UniProt P42346); test: Inhibition of HGF induced mTOR activation in rat liver assessed as inhibition of AKT phosphorylation at S473 at 30 mg/kg, ip 6 hrs prior to HGF stimulation by MSD analysis; assay type: organism-based; design: dose 30 mg/kg; scale not given: the % may be the effect or the level left
[2] = molecular target: Serine/threonine-protein kinase mTOR (Rattus norvegicus) (UniProt P42346); test: Inhibition of HGF induced mTOR activation in rat liver assessed as inhibition of AKT phosphorylation at S473 at 100 mg/kg, ip 6 hrs prior to HGF stimulation by MSD analysis; assay type: organism-based; design: dose 100 mg/kg
[3] = molecular target: Serine/threonine-protein kinase mTOR (Rattus norvegicus) (UniProt P42346); test: Inhibition of HGF induced mTOR activation in rat liver assessed as inhibition of S6RP phosphorylation at 100 mg/kg, ip 6 hrs prior to HGF stimulation by MSD analysis; assay type: organism-based; design: dose 100 mg/kg
Rattus norvegicus [4] = test: Inhibition of HGF induced mTOR activation in ip dosed rat liver assessed as inhibition of AKT phosphorylation at S473 administered 6 hrs prior to HGF stimulation by MSD analysis; assay type: functional, organism-based
Rattus norvegicus [5] = test: AUC in rat at 2 mg/kg, po; assay type: ADME, organism-based, Plasma; design: dose 2 mg/kg, route oral; settings: in vivo
[6] = AUC in rat at 50 mg/kg, po; assay type: ADME, organism-based; design: dose 50 mg/kg, route oral; settings: plasma
[7] = Clearance in Sprague-Dawley rat at 1 mg/kg, iv and 2 mg/kg, po; assay type: ADME, organism-based; settings: in vivo
[8] = Volume of distribution at steady state in Sprague-Dawley rat at 1 mg/kg, iv and 2 mg/kg, po; assay type: ADME, organism-based; settings: in vivo, read-out: Vdss
Rattus norvegicus [9] = test: AUC in Sprague-Dawley rat at 1 mg/kg, iv; assay type: ADME, organism-based, Plasma; design: dose 1 mg/kg, route intravenous; settings: in vivo
[10] = Half life in Sprague-Dawley rat at 1 mg/kg, iv; assay type: ADME, organism-based; design: dose 1 mg/kg, route intravenous; settings: in vivo
[11] = Oral bioavailability in Sprague-Dawley rat at 2 mg/kg; assay type: ADME, organism-based; settings: in vivo
[12] = Plasma protein binding in Sprague-Dawley rat at 1 mg/kg, iv and 2 mg/kg, po; assay type: ADME, organism-based; settings: read-out: PPB (converted)
[13] = Solubility of compound in 0.01 N HCL; assay type: physicochemical; settings: 0.01 N HCl; read-out: solubility
[14] = molecular target: T1, Serine/threonine-protein kinase mTOR (Homo sapiens, UniProt P42345)
[15] = molecular target: T1, Serine/threonine-protein kinase mTOR; remark: listed apart in the source
[16] = molecular target: T1, Serine/threonine-protein kinase mTOR; remark: listed apart in the source
Description: Inhibition of mTOR in human U-87 cells assessed as inhibition of phosphorylation of AKT at S473

[17] = molecular target: Phosphatidylinositol 4,5-bisphosphate 3-kinase catalytic subunit alpha isoform (Homo sapiens, UniProt P42336)
Phosphatidylinositol 4,5-bisphosphate 3-kinase catalytic subunit alpha isoform, sequence (P42336 whole entry, canonical isoform): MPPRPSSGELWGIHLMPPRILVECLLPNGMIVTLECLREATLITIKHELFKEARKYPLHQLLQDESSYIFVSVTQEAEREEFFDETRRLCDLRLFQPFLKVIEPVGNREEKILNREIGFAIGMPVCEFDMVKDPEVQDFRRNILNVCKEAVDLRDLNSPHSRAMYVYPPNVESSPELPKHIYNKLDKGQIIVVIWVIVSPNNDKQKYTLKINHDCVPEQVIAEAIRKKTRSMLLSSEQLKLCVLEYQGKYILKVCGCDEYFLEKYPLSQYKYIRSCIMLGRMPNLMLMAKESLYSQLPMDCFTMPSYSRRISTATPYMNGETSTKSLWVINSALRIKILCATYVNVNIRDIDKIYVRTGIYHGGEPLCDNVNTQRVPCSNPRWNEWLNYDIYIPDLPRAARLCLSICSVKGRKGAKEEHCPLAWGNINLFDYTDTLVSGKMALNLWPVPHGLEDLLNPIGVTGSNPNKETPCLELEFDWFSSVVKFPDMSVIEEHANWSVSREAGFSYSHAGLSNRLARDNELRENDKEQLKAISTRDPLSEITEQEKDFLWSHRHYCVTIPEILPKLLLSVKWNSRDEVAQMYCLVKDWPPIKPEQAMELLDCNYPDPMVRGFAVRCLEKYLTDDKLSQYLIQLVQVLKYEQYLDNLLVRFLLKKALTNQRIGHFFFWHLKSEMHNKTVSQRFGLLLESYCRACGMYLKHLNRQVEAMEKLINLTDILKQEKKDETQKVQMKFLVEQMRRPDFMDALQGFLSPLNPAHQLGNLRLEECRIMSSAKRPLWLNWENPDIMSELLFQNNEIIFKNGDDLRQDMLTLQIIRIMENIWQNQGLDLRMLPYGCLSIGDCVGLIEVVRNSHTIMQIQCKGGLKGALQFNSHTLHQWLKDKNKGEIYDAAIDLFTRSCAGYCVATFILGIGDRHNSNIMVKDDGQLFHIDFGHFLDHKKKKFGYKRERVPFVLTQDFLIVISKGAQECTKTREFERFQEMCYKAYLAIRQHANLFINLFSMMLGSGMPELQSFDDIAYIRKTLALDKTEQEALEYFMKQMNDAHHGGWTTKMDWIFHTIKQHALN

[18] = molecular target: Phosphatidylinositol 4,5-bisphosphate 3-kinase catalytic subunit beta isoform (Homo sapiens, UniProt P42338)
Phosphatidylinositol 4,5-bisphosphate 3-kinase catalytic subunit beta isoform, sequence (P42338 whole entry, canonical isoform): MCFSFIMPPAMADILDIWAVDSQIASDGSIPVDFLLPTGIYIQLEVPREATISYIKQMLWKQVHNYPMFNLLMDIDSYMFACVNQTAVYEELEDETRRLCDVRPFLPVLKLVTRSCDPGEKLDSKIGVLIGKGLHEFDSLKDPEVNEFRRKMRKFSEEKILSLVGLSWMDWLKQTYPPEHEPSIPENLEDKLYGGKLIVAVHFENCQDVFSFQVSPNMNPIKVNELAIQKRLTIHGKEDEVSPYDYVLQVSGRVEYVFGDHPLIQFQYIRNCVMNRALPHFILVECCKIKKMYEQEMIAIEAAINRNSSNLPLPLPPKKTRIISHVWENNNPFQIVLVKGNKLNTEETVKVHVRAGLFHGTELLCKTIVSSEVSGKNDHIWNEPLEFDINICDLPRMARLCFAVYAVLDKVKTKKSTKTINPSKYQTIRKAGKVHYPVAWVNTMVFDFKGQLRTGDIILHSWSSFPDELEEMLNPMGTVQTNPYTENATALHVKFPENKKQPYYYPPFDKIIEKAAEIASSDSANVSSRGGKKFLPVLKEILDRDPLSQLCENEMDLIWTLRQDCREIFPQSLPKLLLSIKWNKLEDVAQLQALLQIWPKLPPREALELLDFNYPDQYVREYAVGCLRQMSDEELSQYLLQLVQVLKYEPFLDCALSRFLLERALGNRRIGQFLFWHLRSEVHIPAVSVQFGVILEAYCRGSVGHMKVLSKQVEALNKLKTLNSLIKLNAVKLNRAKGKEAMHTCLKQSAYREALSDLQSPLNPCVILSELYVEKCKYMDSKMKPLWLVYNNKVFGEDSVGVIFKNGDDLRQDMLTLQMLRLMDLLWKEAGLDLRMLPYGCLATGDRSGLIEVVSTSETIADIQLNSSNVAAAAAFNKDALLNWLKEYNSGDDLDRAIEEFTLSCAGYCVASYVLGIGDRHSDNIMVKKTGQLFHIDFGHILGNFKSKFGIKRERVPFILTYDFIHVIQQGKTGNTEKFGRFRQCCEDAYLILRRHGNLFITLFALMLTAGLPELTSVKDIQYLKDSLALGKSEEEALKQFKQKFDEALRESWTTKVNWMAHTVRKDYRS

[19] = molecular target: T2, Phosphatidylinositol 4,5-bisphosphate 3-kinase catalytic subunit delta isoform (Homo sapiens, UniProt O00329)
T2 sequence (O00329 whole entry): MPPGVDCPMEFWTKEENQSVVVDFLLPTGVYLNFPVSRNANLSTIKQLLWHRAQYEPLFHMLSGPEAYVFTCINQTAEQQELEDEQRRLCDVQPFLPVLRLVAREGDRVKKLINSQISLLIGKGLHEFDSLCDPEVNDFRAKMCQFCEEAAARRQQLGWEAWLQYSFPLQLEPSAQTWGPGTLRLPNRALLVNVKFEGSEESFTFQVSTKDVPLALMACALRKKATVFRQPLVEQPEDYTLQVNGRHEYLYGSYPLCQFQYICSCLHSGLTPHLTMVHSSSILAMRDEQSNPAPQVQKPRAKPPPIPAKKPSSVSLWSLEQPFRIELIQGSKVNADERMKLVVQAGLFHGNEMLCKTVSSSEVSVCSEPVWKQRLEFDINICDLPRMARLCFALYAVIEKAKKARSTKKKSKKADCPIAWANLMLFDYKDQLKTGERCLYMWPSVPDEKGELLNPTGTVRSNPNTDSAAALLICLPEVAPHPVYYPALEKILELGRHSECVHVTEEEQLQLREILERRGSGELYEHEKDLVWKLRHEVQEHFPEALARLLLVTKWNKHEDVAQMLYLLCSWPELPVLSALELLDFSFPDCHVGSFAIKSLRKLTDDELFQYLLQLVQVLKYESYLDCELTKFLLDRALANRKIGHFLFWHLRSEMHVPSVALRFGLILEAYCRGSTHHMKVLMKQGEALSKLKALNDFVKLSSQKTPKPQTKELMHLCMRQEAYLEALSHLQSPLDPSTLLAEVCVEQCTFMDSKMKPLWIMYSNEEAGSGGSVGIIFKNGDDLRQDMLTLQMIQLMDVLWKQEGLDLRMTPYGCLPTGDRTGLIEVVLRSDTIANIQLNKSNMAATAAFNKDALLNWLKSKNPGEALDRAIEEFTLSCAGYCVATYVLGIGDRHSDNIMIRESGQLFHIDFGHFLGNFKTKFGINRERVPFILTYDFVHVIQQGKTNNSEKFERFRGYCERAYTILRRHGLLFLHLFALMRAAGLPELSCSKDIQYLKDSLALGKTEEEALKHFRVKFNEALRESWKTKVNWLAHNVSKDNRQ

[20] = molecular target: Phosphatidylinositol 4,5-bisphosphate 3-kinase catalytic subunit gamma isoform (Homo sapiens, UniProt P48736)
Phosphatidylinositol 4,5-bisphosphate 3-kinase catalytic subunit gamma isoform, sequence (P48736 whole entry, canonical isoform): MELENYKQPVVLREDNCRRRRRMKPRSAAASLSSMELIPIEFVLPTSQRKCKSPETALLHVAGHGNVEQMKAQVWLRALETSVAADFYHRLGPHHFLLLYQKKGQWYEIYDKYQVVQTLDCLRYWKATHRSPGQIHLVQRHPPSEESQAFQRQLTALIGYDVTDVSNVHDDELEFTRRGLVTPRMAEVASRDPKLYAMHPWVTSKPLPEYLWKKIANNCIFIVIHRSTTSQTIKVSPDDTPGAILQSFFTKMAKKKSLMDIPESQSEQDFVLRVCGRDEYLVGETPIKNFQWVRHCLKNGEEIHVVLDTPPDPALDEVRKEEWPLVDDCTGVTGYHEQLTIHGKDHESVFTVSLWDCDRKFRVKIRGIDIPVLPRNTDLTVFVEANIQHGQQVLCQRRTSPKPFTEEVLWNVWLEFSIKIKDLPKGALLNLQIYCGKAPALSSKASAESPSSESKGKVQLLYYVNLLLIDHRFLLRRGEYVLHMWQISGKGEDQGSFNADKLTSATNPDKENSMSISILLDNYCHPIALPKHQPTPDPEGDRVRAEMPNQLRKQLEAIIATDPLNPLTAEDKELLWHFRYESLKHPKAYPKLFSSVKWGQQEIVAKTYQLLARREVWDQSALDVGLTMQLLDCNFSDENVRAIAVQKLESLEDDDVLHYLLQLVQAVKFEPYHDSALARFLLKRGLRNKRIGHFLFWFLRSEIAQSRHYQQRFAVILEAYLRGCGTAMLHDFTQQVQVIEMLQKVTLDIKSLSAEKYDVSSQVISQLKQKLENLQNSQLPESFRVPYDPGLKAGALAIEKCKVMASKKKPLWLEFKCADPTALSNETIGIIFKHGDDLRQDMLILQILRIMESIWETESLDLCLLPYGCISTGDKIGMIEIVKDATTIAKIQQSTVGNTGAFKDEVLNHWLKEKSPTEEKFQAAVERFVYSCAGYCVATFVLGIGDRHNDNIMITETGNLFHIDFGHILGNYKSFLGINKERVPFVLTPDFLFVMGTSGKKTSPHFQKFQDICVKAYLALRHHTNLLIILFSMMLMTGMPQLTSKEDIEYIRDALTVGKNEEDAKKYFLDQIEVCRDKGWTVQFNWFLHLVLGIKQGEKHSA

BT-474 = test: Antiproliferative activity against human BT474 cells harboring HER2/PI3K/p53 mutant gene at 1 uM after 72 hrs by Ambit assay in presence of 10% serum; assay type: functional, cell-based; settings: BT-474, 72 h
UACC-893 = test: Antiproliferative activity against human UACC-893 cells harboring HER2/PI3K/p53 mutant gene at 1 uM after 72 hrs by Ambit assay in presence of 10% serum; assay type: functional, cell-based; settings: UACC-893, 72 h
A-375 = test: Antiproliferative activity against human A375 cells harboring BRAF gene mutation/amplification at 1 uM after 72 hrs by Ambit assay in presence of 10% serum; assay type: functional, cell-based; settings: A-375, 72 h
A549 = test: Antiproliferative activity against human A549 cells harboring KRAS/LKB1 gene mutation/amplification at 1 uM after 72 hrs by Ambit assay in presence of 10% serum; assay type: functional, cell-based; settings: A549, 72 h
Calu-6 = test: Antiproliferative activity against human Calu6 harboring KRAS gene mutation/amplification at 1 uM after 72 hrs by Ambit assay in presence of 10% serum; assay type: functional, cell-based; settings: Calu-6, 72 h
CAL-51 = test: Antiproliferative activity against human CAL51 harboring PI3K/PTEN gene mutation/amplification at 1 uM after 72 hrs by Ambit assay in presence of 10% serum; assay type: functional, cell-based; settings: CAL-51, 72 h
COLO-829 = test: Antiproliferative activity against human COLO829 harboring BRAF/PTEN gene mutation/amplification at 1 uM after 72 hrs by Ambit assay in presence of 10% serum; assay type: functional, cell-based; settings: COLO-829, 72 h
DU-4475 = test: Antiproliferative activity against human DU4475 harboring BRAF/APC/RB gene mutation/amplification at 1 uM after 72 hrs by Ambit assay in presence of 10% serum; assay type: functional, cell-based; settings: DU-4475, 72 h
HCC1954 = test: Antiproliferative activity against human HCC1954 harboring PI3K/p53 gene mutation/amplification at 1 uM after 72 hrs by Ambit assay in presence of 10% serum; assay type: functional, cell-based; settings: HCC1954, 72 h
MCF7 = test: Antiproliferative activity against human MCF7 harboring PI3K gene mutation/amplification at 1 uM after 72 hrs by Ambit assay in presence of 10% serum; assay type: functional, cell-based; settings: MCF7, 72 h
MDA-MB-231 = test: Antiproliferative activity against human MDA-MB-231 harboring KRAS/BRAF/p53 gene mutation/amplification at 1 uM after 72 hrs by Ambit assay in presence of 10% serum; assay type: functional, cell-based; settings: MDA-MB-231, 72 h
MDA-MB-468 = test: Antiproliferative activity against human MDA-MB-468 harboring PTEN/EGFR/p53 gene mutation/amplification at 1 uM after 72 hrs by Ambit assay in presence of 10% serum; assay type: functional, cell-based; settings: MDA-MB-468, 72 h
NCI-H2009 = test: Antiproliferative activity against human NCI-H2009 harboring KRAS/RB/p53 gene mutation/amplification at 1 uM after 72 hrs by Ambit assay in presence of 10% serum; assay type: functional, cell-based; settings: NCI-H2009, 72 h
NCI-H1975 = test: Antiproliferative activity against human NCI-H1975 harboring PI3K/EGFR/p53 gene mutation/amplification at 1 uM after 72 hrs by Ambit assay in presence of 10% serum; assay type: functional, cell-based; settings: NCI-H1975, 72 h
NCI-H460 = test: Antiproliferative activity against human NCI-H460 harboring PI3K/KRAS/LKB1 gene mutation/amplification at 1 uM after 72 hrs by Ambit assay in presence of 10% serum; assay type: functional, cell-based; settings: NCI-H460, 72 h
NCI-H82 = test: Antiproliferative activity against human NCI-H82 harboring CMYC/RB gene mutation/amplification at 1 uM after 72 hrs by Ambit assay in presence of 10% serum; assay type: functional, cell-based; settings: NCI-H82, 72 h
SK-MEL-28 = test: Antiproliferative activity against human SK-MEL-28 harboring BRAF gene mutation/amplification at 1 uM after 72 hrs by Ambit assay in presence of 10% serum; assay type: functional, cell-based; settings: SK-MEL-28, 72 h
[21] = Antiproliferative activity against human U87MG harboring PTEN gene mutation/amplification at 1 uM after 72 hrs by Ambit assay in presence of 10% serum; assay type: functional, U-87MG ATCC; settings: U-87 MG
[22] = molecular target: TGF-beta receptor type-2 (Homo sapiens) (UniProt P37173); test: Inhibition of TGFBR2 assessed as inhibition of TGFbeta induced SMAD phosphorylation at 1 uM relative to control
TGF-beta receptor type-2 (Homo sapiens), sequence (P37173 whole entry): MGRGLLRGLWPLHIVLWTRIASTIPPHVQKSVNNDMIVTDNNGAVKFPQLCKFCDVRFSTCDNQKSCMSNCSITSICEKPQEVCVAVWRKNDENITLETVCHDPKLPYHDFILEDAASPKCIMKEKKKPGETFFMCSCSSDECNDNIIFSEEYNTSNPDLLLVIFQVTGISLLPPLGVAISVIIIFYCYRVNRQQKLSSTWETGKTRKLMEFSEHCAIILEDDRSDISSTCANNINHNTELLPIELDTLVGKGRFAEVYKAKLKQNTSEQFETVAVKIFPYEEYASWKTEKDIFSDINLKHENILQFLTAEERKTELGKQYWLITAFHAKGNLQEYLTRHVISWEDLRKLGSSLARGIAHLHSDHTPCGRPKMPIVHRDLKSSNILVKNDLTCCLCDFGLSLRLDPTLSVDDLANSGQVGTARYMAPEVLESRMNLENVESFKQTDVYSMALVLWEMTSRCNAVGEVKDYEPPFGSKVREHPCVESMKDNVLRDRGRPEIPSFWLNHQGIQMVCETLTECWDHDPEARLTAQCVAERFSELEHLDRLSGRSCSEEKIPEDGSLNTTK

[23] = molecular target: TGF-beta receptor type-2 (Homo sapiens) (UniProt P37173); test: Inhibition of TGFBR2 assessed as inhibition of TGFbeta induced SMAD phosphorylation at 10 uM relative to control

CNc1nc(C)nc(-n2c(Nc3cc[nH]n3)nc3ccccc32)n1
Activity [1]: 71% | inhibition [2]: 83% | inhibition [3]: 78% | inhibition (Rattus norvegicus [4]): Dose-dependent effect | AUC (Rattus norvegicus [5]): 1490 nM | AUC [6]: 2.03 µM·h | clearance [7]: 15.5 mL/min/kg | Vd [8]: 0.76 L/kg | AUC (Rattus norvegicus [9]): 3.6 µM | half-life [10]: 33.6 min | bioavailability [11]: 20.7% | fraction unbound [12]: 0.008 | solubility [13]: 156 µg/mL (≈ 485 µM) | IC50 [14]: 81 nM | IC50 [15]: 600 nM | IC50 [16]: 100 nM | IC50 [17]: 2200 nM | IC50 [18]: 4500 nM | IC50 [19]: 890 nM | IC50 [20]: 3200 nM

Cc1nc(NCC#N)nc(-n2c(Nc3cc[nH]n3)nc3ccccc32)n1
IC50 (BT-474): 200 nM | IC50 (UACC-893): 140 nM | IC50 (A-375): 380 nM | IC50 (A549): 430 nM | IC50 (Calu-6): 590 nM | IC50 (CAL-51): 320 nM | IC50 (COLO-829): 340 nM | IC50 (DU-4475): 530 nM | IC50 (HCC1954): 220 nM | IC50 (MCF7): 540 nM | IC50 (MDA-MB-231): 270 nM | IC50 (MDA-MB-468): 690 nM | IC50 (NCI-H2009): 420 nM | IC50 (NCI-H1975): 600 nM | IC50 (NCI-H460): 460 nM | IC50 (NCI-H82): 430 nM | IC50 (SK-MEL-28): 470 nM | IC50 [21]: 350 nM | inhibition [22]: 17% | inhibition [23]: inactive
